The source of these data is publication PMC11585924, “Direct measurements of neurosteroid binding to specific sites on GABAA receptors” (British journal of pharmacology, 2024).

Entries after “also recorded” stand apart in the source; their conditions may differ.

What all share (assay type): binding
Assay [1] has as its target T1, ELIC-α1^W246LGABAAR (Homo sapiens, UniProt P14867, W273L). Kind of assay: biochemical. The procedure:
ELIC-α1GABAAR was expressed and purified according to a previously published protocol ([Q. Chen et al., 2018]). The purified protein was aliquoted and stored at −80°C. Mutagenesis was performed as described in previous reports ([Kinde et al., 2016]) by oligonucleotide-directed mutagenesis using Phu polymerase (Thermo Fisher Scientific, Waltham, MA, USA) verified by sequencing. ELIC-α1GABAAR was expressed in OverExpress™ C43(D3) E. coli, derived from Rosetta™(DE3) cells under double selection with kanamycin and chloramphenicol for ELIC-α1GABAAR.
One hundred microlitres of purified ELIC-α1GABAAR (0.3 μM in Buffer A + 0.015% DDM) was transferred into a 50-μl window quartz cuvette (Starna Cells, Atascadero, CA, USA), which was placed in a cuvette holder maintained at 4°C. […] Two microlitres of NaI (AK Scientific, Union City, CA, USA; 5-M stock prepared in 0.1-Mm sodium hydrosulfite [Sigma-Aldrich, St. Louis, MO, USA]) was added to the protein (final concentration = 100 mM) and incubated for 10 min to reduce the fluorescence emission from hydrophilic tryptophans. To measure the concentration–dependent effects of NS on tryptophan fluorescence, 1 μl of NS from each 100× stock solution was sequentially added to the NaI-equilibrated protein and thoroughly mixed to achieve concentrations from 0.01 to 50 μM. […]

Assay [2] deals with T1, ELIC-α1^W246LGABAAR. Put plainly: Inhibition of MQ290 FRET by NS in W246L receptors. The following applies: 30 μM NS; MQ290 1 μM. The procedure: (§1) One hundred microlitres of ELIC-α1GABAAR (0.3 μM) was transferred into a 50-μl window quartz cuvette maintained at 4°C, and NaI was added to the protein sample to a final concentration of 100 mM and incubated for 10 min. MQ290 was then added at a concentration of 3 μM for 3α-OH NS inhibition curves or 1 μM for 3β-OH NS inhibition curves and incubated for 30 min. One-microlitre aliquots of 3α-OH and 3β-OH NS from their corresponding stock solutions (prepared in Buffer A + 0.015% DDM) were added to achieve concentrations between 0.01 and 30 μM. The background emission spectra of ligands alone were obtained for each ligand concentration in the absence of protein and were subtracted from the protein-ligand emission spectra to yield background subtracted data. The MQ290 FRET spectra for different ligand concentrations were estimated using the method described above. The 370-nm intensities of the FRET spectra were plotted against ligand concentration and fitted to a four-parameter logistic curve to obtain IC50 data (GraphPad Software version 9.4.0, San Diego, CA). Ki values were calculated using the relationship: Ki=IC50/1+LT/Kd

Assay [3] deals with T2, ELIC-α1GABAAR (Homo sapiens, UniProt P14867). Put plainly: KK200 photolabelling competition, middle-down MS. The following applies: 3 μM KK200, 30 μM competitor. The procedure:
The synthesis of the NS photolabelling reagent KK200 is detailed in previous reports ([W. W. L. Cheng et al., 2018]; [Jiang et al., 2016]). […] The samples were then irradiated in a quartz cuvette for 5 min, using a photoreactor emitting light at >320 nm ([Germann et al., 2021]). Sample preparation for tryptic digestion and analysis by LC–MS was performed as previously described ([Sugasawa et al., 2019]). Peptides were separated on a home-packed PLRP-S (Agilent, Santa Clara, CA, USA) column (10 cm × 75 μm, 300 Å) using a 135-min gradient from 10% to 90% acetonitrile and introduced to an Orbitrap-Elite mass spectrometer (Thermo Fisher Scientific, Waltham, MA, USA; RRID:SCR_020548) at 800 nl·min^−1 with a nanospray source. MS acquisition was set as an MS1 Orbitrap scan (resolution of 60,000) followed by top 20 MS2 Orbitrap scans (resolution of 15,000) using data-dependent acquisition and exclusion of singly charged precursors. Fragmentation was performed using high-energy dissociation with normalized energy of 35%. Analysis of data sets was performed using Xcalibur (Thermo Fisher Scientific, Waltham, MA, USA; RRID: SCR_014593) to manually search for TM1, TM2, TM3 or TM4 tryptic peptides with or without NS photolabelling modifications. Photolabelling efficiency was estimated by generating extracted chromatograms of unlabelled and labelled peptides, determining the area under the curve, and calculating the (area of labelled peptide/(area of unlabelled + area of labelled peptide). MS2 spectra of photolabelled TMD peptides were analysed by manual assignment of fragment ions with and without photolabelling modification.

In assay [4] the target is T2, ELIC-α1GABAAR. The procedure:
as §1
where LT is the concentration of MQ290 and Kd was determined from the MQ290 binding curve.

T2 sequence (P14867 other isoform, or with tags, fused parts or gaps): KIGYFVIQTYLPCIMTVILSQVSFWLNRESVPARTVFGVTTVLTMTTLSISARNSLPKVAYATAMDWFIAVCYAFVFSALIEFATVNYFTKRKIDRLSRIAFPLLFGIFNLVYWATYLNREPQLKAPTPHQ
T2 sequence (P0C7B7 1-198, further chain): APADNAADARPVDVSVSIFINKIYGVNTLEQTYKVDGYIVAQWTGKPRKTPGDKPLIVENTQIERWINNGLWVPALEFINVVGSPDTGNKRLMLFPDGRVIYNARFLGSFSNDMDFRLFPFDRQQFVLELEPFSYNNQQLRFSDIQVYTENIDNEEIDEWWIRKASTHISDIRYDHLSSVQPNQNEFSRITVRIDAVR
T1 sequence (P14867 other isoform, or with tags, fused parts or gaps W273L): as the sequence (P14867 other isoform, or with tags, fused parts or gaps) above, with W25L counted along it
T1 sequence (P0C7B7 1-198, further chain): as the sequence (P0C7B7 1-198, further chain) above

`CC(=O)[C@H]1CC[C@H]2[C@@H]3CC[C@H]4C[C@@H](O)CC[C@]4(C)[C@H]3CC[C@]12C` [Epi-AlloP, epi-allopregnanolone] showed an IC50 against ELIC-α1^W246LGABAAR [1] of 340 ± 130 nM. Moreover, the “inhibition of remaining MQ290 FRET signal in W246L” value at ELIC-α1^W246LGABAAR [2] is given as “reduced by neither”. At ELIC-α1GABAAR [3], the “prevention of KK200 photolabelling of TM3 (Y309)” value is recorded as “not significantly different than control; also recorded: did not”. Further, the Hill slope at ELIC-α1GABAAR [4] (3β-OH NS, MQ290 1 μM) is reported as −0.68 ± 0.45. For the same compound, the “mechanism of inhibition of MQ290 binding” value on ELIC-α1GABAAR [4] (MQ290 binding curves with 3×Kd and 30 μM NS) is recorded as “allosteric mechanism of inhibition”.
